According to the NIST ThermoML archive (doi:10.1021/je8009336):

Experiments:
[1] = Liquid; for mass density: Vibrating tube method; for speed of sound: Vibrating Tube Densimeter
[2] = refractive index (Na D-line) (dimensionless); settings: 101.33 kPa, Liquid, Standard Abbe refractometry
[3] = xn = mol fraction of the nth substance listed; settings: 313.15 K, 101 kPa, Liquid; for speed of sound: Vibrating Tube Densimeter; for mass density: Vibrating tube method
[4] = refractive index (Na D-line) (dimensionless); xn = mol fraction of the nth substance listed; settings: 313.15 K, 101 kPa, Liquid, Standard Abbe refractometry

CCc1ccccc1 [ethylbenzene]
[1]
Settings	mass density, 298.15 K [kg/m3]	mass density, 313.15 K [kg/m3]	speed of sound, 313.15 K [m/s]
101 kPa	–	849.3	1257.3
101.33 kPa	862.5	–	–

[2]
Settings	refractive index
298.15 K	1.49304
313.15 K	1.48538

CCc1ccccc1 [ethylbenzene] + C1CCCC1
x2 = 0
Settings	mass density [kg/m3]	refractive index	speed of sound [m/s]
[3]	849.3	–	1257.3
[4]	–	1.48538	–

CCc1ccccc1 [ethylbenzene] + C1CCCCC1
Settings	mass density, [3] [kg/m3]	refractive index, [4]	speed of sound, [3] [m/s]
x2 = 0	849.3	1.48538	1257.3
x2 = 0.0515	844.7	1.4814	1251.8
x2 = 0.0976	840.5	1.47828	1247
x2 = 0.2494	826.7	1.46788	1231.8
x2 = 0.3647	816.2	1.45999	1221.3
x2 = 0.3855	814.3	1.45831	1219.3
x2 = 0.5028	803.6	1.45026	1209.4
x2 = 0.6009	794.6	1.44349	1201.9
x2 = 0.7005	785.6	1.43614	1195
x2 = 0.7976	776.9	1.42925	1189.2
x2 = 0.9017	768	1.42208	1184.5
x2 = 0.9504	763.8	1.41865	1182.8

CCc1ccccc1 [ethylbenzene] + CC1CCCCC1
x2 = 0
Settings	mass density [kg/m3]	refractive index	speed of sound [m/s]
[3]	849.3	–	1257.3
[4]	–	1.48538	–

CC1CCCCC1 [methylcyclohexane]
[1]
Settings	mass density, 298.15 K [kg/m3]	mass density, 313.15 K [kg/m3]	speed of sound, 313.15 K [m/s]
101 kPa	–	752	1149.6
101.33 kPa	764.9	–	–

[2]
Settings	refractive index
298.15 K	1.42053
313.15 K	1.41272

CC1CCCCC1 [methylcyclohexane] + CCc1ccccc1
Settings	mass density, [3] [kg/m3]	refractive index, [4]	speed of sound, [3] [m/s]
x1 = 0.0509	843.8	1.48108	1249.9
x1 = 0.0975	838.9	1.4774	1243.4
x1 = 0.1957	828.6	1.46965	1230.3
x1 = 0.2794	820	1.46339	1219.8
x1 = 0.4006	807.9	1.45428	1205.4
x1 = 0.4962	798.4	1.44736	1194.9
x1 = 0.5977	788.6	1.44003	1184.5
x1 = 0.6968	779.2	1.43303	1174.9
x1 = 0.7988	769.7	1.42601	1165.7
x1 = 0.8973	760.9	1.41941	1157.5
x1 = 0.9483	756.4	1.41609	1153.5
x1 = 1	752	1.41272	1149.6

CC1CCCCC1 [methylcyclohexane] + Cc1ccccc1
Settings	mass density, [3] [kg/m3]	refractive index, [4]	speed of sound, [3] [m/s]
x1 = 0.0488	842.1	1.48065	1233.3
x1 = 0.0977	836.1	1.4763	1226
x1 = 0.1967	824.6	1.4675	1212.4
x1 = 0.2969	813.6	1.45909	1200.1
x1 = 0.3751	805.5	1.45314	1191.7
x1 = 0.5049	792.7	1.44348	1179.2
x1 = 0.5986	784	1.43702	1171.5
x1 = 0.7022	774.9	1.43008	1164
x1 = 0.8016	766.8	1.42397	1158.1
x1 = 0.9003	759.1	1.41817	1153.2
x1 = 0.9487	755.5	1.41549	1151.2
x1 = 1	752	1.41272	1149.6

CC1CCCCC1 [methylcyclohexane] + c1ccccc1
Settings	mass density, [3] [kg/m3]	refractive index, [4]	speed of sound, [3] [m/s]
x1 = 0.0486	849.3	1.48201	1220.3
x1 = 0.0982	841.3	1.47621	1211.2
x1 = 0.1995	826.7	1.46566	1195.3
x1 = 0.2999	813.5	1.45619	1182.5
x1 = 0.4038	801.3	1.44745	1172
x1 = 0.4998	791.3	1.44043	1164.6
x1 = 0.612	780.7	1.43297	1158.1
x1 = 0.7053	772.6	1.42729	1154.2
x1 = 0.7994	765.3	1.42214	1151.5
x1 = 0.8991	758.4	1.41728	1149.9
x1 = 0.953	754.8	1.4148	1149.5
x1 = 1	752	1.41272	1149.6

Cc1ccccc1 [toluene]
[1]
Settings	mass density, 298.15 K [kg/m3]	mass density, 313.15 K [kg/m3]	speed of sound, 313.15 K [m/s]
101 kPa	–	848.2	1240.9
101.33 kPa	862.1	–	–

[2]
Settings	refractive index
298.15 K	1.49399
313.15 K	1.48509

Cc1ccccc1 [toluene] + C1CCCC1
x2 = 0
Settings	mass density [kg/m3]	refractive index	speed of sound [m/s]
[3]	848.2	–	1240.9
[4]	–	1.48509	–

Cc1ccccc1 [toluene] + C1CCCCC1
x2 = 0
Settings	mass density [kg/m3]	refractive index	speed of sound [m/s]
[3]	848.2	–	1240.9
[4]	–	1.48509	–

Cc1ccccc1 [toluene] + CC1CCCCC1
x2 = 0
Settings	mass density [kg/m3]	refractive index	speed of sound [m/s]
[3]	848.2	–	1240.9
[4]	–	1.48509	–
